Reference: patent US11572399B2, “Long-acting GIP peptide analogues” (University of Copenhagen, priority 2017, dated 2023)
Numbered stars: 1 amine (or outer) side, 2 acyl side, 3 side chain; on linkers, the order of the positions; unused ones are H or OH. Side chains are listed from the residue outwards. Peptide text beside a SMILES is read from it. * marks the point of attachment. γGlu = O=C(O)[C@H](CCC(=O)[*:2])N[*:1]; Palmitoyl = CCCCCCCCCCCCCCCC(=O)*; AEEA = NCCOCCOCC(=O)O; GABA = NCCCC(=O)O

Columns and labels:
human GIP receptor [1] = biological target: T1, human GIP receptor (Homo sapiens, UniProt P48546); experiment: cAMP accumulation assay, antagonism of a GIP-mediated cAMP response (50-80% of max); format: cell-based; conditions: for Fold change from GIP(3-30)NH2 (increase in potency): Table 5
T1 construct: host or cells: COS-7, transient transfection (calcium phosphate), cDNA in pCMV-Script
T1 sequence (P48546 22-466): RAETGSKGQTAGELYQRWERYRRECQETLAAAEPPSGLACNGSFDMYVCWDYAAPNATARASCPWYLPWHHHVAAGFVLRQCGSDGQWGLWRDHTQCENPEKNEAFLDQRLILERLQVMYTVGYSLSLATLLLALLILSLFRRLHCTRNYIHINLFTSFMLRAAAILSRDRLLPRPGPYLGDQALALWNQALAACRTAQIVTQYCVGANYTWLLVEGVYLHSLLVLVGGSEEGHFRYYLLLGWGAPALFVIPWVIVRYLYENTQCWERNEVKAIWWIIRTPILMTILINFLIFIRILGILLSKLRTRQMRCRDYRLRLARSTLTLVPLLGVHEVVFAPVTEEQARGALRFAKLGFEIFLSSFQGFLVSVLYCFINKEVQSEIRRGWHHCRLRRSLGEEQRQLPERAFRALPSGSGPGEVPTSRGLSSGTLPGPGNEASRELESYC
Protocol: The day after, the cells were washed twice with Hepes buffered saline (HBS) buffer and incubated with HBS and 1 mM 3-isobutyl-1-methylxanthine (IBMX) for 30 min at 37° C. […] The HitHunter™ cAMP XS assay (DiscoveRx) was carried out according to the manufacturer's instructions.

human GIP receptor [2] = biological target: T1, human GIP receptor; experiment: 125I-human GIP competition binding assay, in the presence and absence of 2% HSA;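 note: nonspecific binding taken as radioligand bound to untransfected cells, IC50 obtained from nonlinear regression fits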
Protocol: Transient transfection of the COS-7 cells for cAMP accumulation and competition binding was performed using the calcium phosphate precipitation method with the addition of chloroquine^46-47.
Transient transfected COS-7 cells expressing the human GIP receptor were seeded in clear 96-well plates the day after transfection using a number of cells/well that obtained 5-10% specific binding of the added radioactive ligand. The following day, cells were assayed by competition binding for 3 h at 4° C. using 15-40 pM 125 I-human GIP as well as increasing concentrations unlabeled ligand in 50 mM Hepes buffer (pH 7.2) in the presence and absence of 2% HSA. After incubation, the cells were washed twice in ice-cold binding buffer (+/−2% HSA) and lysed using 200 mM NaOH with 1% SDS for 30 min. Nonspecific binding was determined as the binding of radioactive ligand to untransfected cells.
IC50, EC50, and Ki values were determined by nonlinear regression. […] Ki values were based on the formula for one class of binding sites in homologous competition binding studies and the Cheng Prussoffs formula, respectively (DeBlasi et al., 1989). To determine the HSA binding potential, the fold change in affinity (as determined by IC50) was calculated as IC50 (plus HSA)/IC50 (minus HSA).

human GIP receptor [3] = biological target: T1, human GIP receptor; experiment: cAMP accumulation assay, agonism (ligand alone); format: cell-based; conditions: COS-7 cells, Table 1; for Emax: COS-7, intrinsic cAMP activity; for EC50: read-out: cAMP agonism nM (EC50)
[4] = heterologous competition binding, transiently transfected COS-7 cells expressing the human GIP receptor, read-out: Binding

Row | SMILES | Fold change from GIP(3-30)NH2 (increase in potency) (human GIP receptor [1]) [fold] | IC50 (human GIP receptor [2]; [4]) [nM] | Emax (human GIP receptor [3]) [%] | EC50 (human GIP receptor [3]) [nM] | further results
1 | CCCCCCCCCCCCCCCC(=O)NCCOCCOCC(=O)N[C@@H](CCC(=O)NCCCC[C@H](NC(=O)[C@@H](NC(=O)[C@H](CCCCN)NC(=O)[C@H](CC(=O)O)NC(=O)[C@H](CCSC)NC(=O)[C@H](C)NC(=O)[C@@H](NC(=O)[C@H](CO)NC(=O)[C@H](Cc1ccc(O)cc1)NC(=O)[C@H](CC(=O)O)NC(=O)[C@H](CO)NC(=O)[C@@H](NC(=O)[C@H](Cc1ccccc1)NC(=O)[C@@H](NC(=O)CNC(=O)[C@@H](N)CCC(=O)O)[C@@H](C)O)[C@@H](C)CC)[C@@H](C)CC)[C@@H](C)CC)C(=O)N[C@@H](CCC(N)=O)C(=O)N[C@@H](CCC(N)=O)C(=O)N[C@@H](CC(=O)O)C(=O)N[C@@H](Cc1ccccc1)C(=O)N[C@H](C(=O)N[C@@H](CC(N)=O)C(=O)N[C@@H](Cc1c[nH]c2ccccc12)C(=O)N[C@@H](CC(C)C)C(=O)N[C@@H](CC(C)C)C(=O)N[C@@H](C)C(=O)N[C@@H](CCC(N)=O)C(=O)N[C@@H](CCCCN)C(N)=O)C(C)C)C(=O)O [AT167, [hGIP(3-30)NH2[H18K]-C16/18+y-glutamic acid+8-amino-3,6-dioxaoctanoic acid]] (H-EGTFISDYSIAMDKIK([γGlu-AEEA-Palmitoyl])QQDFVNWLLAQK-NH2) | 14.8 | – | – | – | –
2 | CCCCCCCCCCCCCCCC(=O)NCCCC(=O)NCCCC[C@H](NC(=O)[C@@H](NC(=O)[C@H](CCCCN)NC(=O)[C@H](CC(=O)O)NC(=O)[C@H](CCSC)NC(=O)[C@H](C)NC(=O)[C@@H](NC(=O)[C@H](CO)NC(=O)[C@H](Cc1ccc(O)cc1)NC(=O)[C@H](CC(=O)O)NC(=O)[C@H](CO)NC(=O)[C@@H](NC(=O)[C@H](Cc1ccccc1)NC(=O)[C@@H](NC(=O)CNC(=O)[C@@H](N)CCC(=O)O)[C@@H](C)O)[C@@H](C)CC)[C@@H](C)CC)[C@@H](C)CC)C(=O)N[C@@H](CCC(N)=O)C(=O)N[C@@H](CCC(N)=O)C(=O)N[C@@H](CC(=O)O)C(=O)N[C@@H](Cc1ccccc1)C(=O)N[C@H](C(=O)N[C@@H](CC(N)=O)C(=O)N[C@@H](Cc1c[nH]c2ccccc12)C(=O)N[C@@H](CC(C)C)C(=O)N[C@@H](CC(C)C)C(=O)N[C@@H](C)C(=O)N[C@@H](CCC(N)=O)C(=O)N[C@@H](CCCCN)C(N)=O)C(C)C [AT165, [hGIP(3-30)NH2[H18K]-C16/18+y-aminobuturic acid]] (H-EGTFISDYSIAMDKIK([GABA-Palmitoyl])QQDFVNWLLAQK-NH2; N-terminus assumed) | 2.9 | – | – | – | –
3 | CCCCCCCCCCCCCCCC(=O)NCCCC[C@H](NC(=O)[C@H](CC(=O)O)NC(=O)[C@H](CCSC)NC(=O)[C@H](C)NC(=O)[C@@H](NC(=O)[C@H](CO)NC(=O)[C@H](Cc1ccc(O)cc1)NC(=O)[C@H](CC(=O)O)NC(=O)[C@H](CO)NC(=O)[C@@H](NC(=O)[C@H](Cc1ccccc1)NC(=O)[C@@H](NC(=O)CNC(=O)[C@@H](N)CCC(=O)O)[C@@H](C)O)[C@@H](C)CC)[C@@H](C)CC)C(=O)N[C@H](C(=O)N[C@@H](CCCCN)C(=O)N[C@@H](CCC(N)=O)C(=O)N[C@@H](CCC(N)=O)C(=O)N[C@@H](CC(=O)O)C(=O)N[C@@H](Cc1ccccc1)C(=O)N[C@H](C(=O)N[C@@H](CC(N)=O)C(=O)N[C@@H](Cc1c[nH]c2ccccc12)C(=O)N[C@@H](CC(C)C)C(=O)N[C@@H](CC(C)C)C(=O)N[C@@H](C)C(=O)N[C@@H](CCC(N)=O)C(=O)N[C@@H](CCCCN)C(N)=O)C(C)C)[C@@H](C)CC [AT163, [hGIP(3-30)NH2[H18K]-C16/16]] (H-EGTFISDYSIAMDK(Palmitoyl)IKQQDFVNWLLAQK-NH2; N-terminus assumed) | – | 205 | 0 | – | –
4 | CCCCCCCCCCCC(=O)NCCCC[C@H](NC(=O)[C@H](CC(=O)O)NC(=O)[C@H](CCSC)NC(=O)[C@H](C)NC(=O)[C@@H](NC(=O)[C@H](CO)NC(=O)[C@H](Cc1ccc(O)cc1)NC(=O)[C@H](CC(=O)O)NC(=O)[C@H](CO)NC(=O)[C@@H](NC(=O)[C@H](Cc1ccccc1)NC(=O)[C@@H](NC(=O)CNC(=O)[C@@H](N)CCC(=O)O)[C@@H](C)O)[C@@H](C)CC)[C@@H](C)CC)C(=O)N[C@H](C(=O)N[C@@H](Cc1c[nH]cn1)C(=O)N[C@@H](CCC(N)=O)C(=O)N[C@@H](CCC(N)=O)C(=O)N[C@@H](CC(=O)O)C(=O)N[C@@H](Cc1ccccc1)C(=O)N[C@H](C(=O)N[C@@H](CC(N)=O)C(=O)N[C@@H](Cc1c[nH]c2ccccc12)C(=O)N[C@@H](CC(C)C)C(=O)N[C@@H](CC(C)C)C(=O)N[C@@H](C)C(=O)N[C@@H](CCC(N)=O)C(=O)N[C@@H](CCCCN)C(N)=O)C(C)C)[C@@H](C)CC [AT102, [hGIP(3-30)NH2—C12/16]] | – | 59.1 | – | 0.7 | IC50 (human GIP receptor [2]; Table 3b, initial data, read-out: Binding IC50): 59.1 nM; Binding fold (paired) (human GIP receptor [2]; fold decrease in affinity compared to GIP(3-30)NH2, Table 3b): 6.1 fold; cAMP agonism Emax (human GIP receptor [3]; intrinsic cAMP activity): 66%
5 | CCCCCCCCCCCC(=O)N[C@@H](CCC(=O)O)C(=O)NCC(=O)N[C@H](C(=O)N[C@@H](Cc1ccccc1)C(=O)N[C@H](C(=O)N[C@@H](CO)C(=O)N[C@@H](CC(=O)O)C(=O)N[C@@H](Cc1ccc(O)cc1)C(=O)N[C@@H](CO)C(=O)N[C@H](C(=O)N[C@@H](C)C(=O)N[C@@H](CCSC)C(=O)N[C@@H](CC(=O)O)C(=O)N[C@@H](CCCCN)C(=O)N[C@H](C(=O)N[C@@H](Cc1c[nH]cn1)C(=O)N[C@@H](CCC(N)=O)C(=O)N[C@@H](CCC(N)=O)C(=O)N[C@@H](CC(=O)O)C(=O)N[C@@H](Cc1ccccc1)C(=O)N[C@H](C(=O)N[C@@H](CC(N)=O)C(=O)N[C@@H](Cc1c[nH]c2ccccc12)C(=O)N[C@@H](CC(C)C)C(=O)N[C@@H](CC(C)C)C(=O)N[C@@H](C)C(=O)N[C@@H](CCC(N)=O)C(=O)N[C@@H](CCCCN)C(N)=O)C(C)C)[C@@H](C)CC)[C@@H](C)CC)[C@@H](C)CC)[C@@H](C)O [AT148, [hGIP(3-30)NH2—C12/3]] | – | 24 | 43 | 13 | –
6 | CC[C@H](C)[C@H](NC(=O)[C@H](CO)NC(=O)[C@H](Cc1ccc(O)cc1)NC(=O)[C@H](CC(=O)O)NC(=O)[C@H](CO)NC(=O)[C@@H](NC(=O)[C@H](Cc1ccccc1)NC(=O)[C@@H](N)[C@@H](C)O)[C@@H](C)CC)C(=O)N[C@@H](C)C(=O)N[C@@H](CCSC)C(=O)N[C@@H](CC(=O)O)C(=O)N[C@@H](CCCCN)C(=O)N[C@H](C(=O)N[C@@H](Cc1c[nH]cn1)C(=O)N[C@@H](CCC(N)=O)C(=O)N[C@@H](CCC(N)=O)C(=O)N[C@@H](CC(=O)O)C(=O)N[C@@H](Cc1ccccc1)C(=O)N[C@H](C(=O)N[C@@H](CC(N)=O)C(=O)N[C@@H](Cc1c[nH]c2ccccc12)C(=O)N[C@@H](CC(C)C)C(=O)N[C@@H](CC(C)C)C(=O)N[C@@H](C)C(=O)N[C@@H](CCC(N)=O)C(=O)N[C@@H](CCCCN)C(N)=O)C(C)C)[C@@H](C)CC [hGIP(5-30)NH2, reference compound] | – | – | – | – | Binding (+/−HSA) Fold (human GIP receptor [2]; fold change +HSA/−HSA): 1.0; IC50 (human GIP receptor [1]; cAMP accumulation IC50 (nM), antagonism of GIP-mediated cAMP response, COS-7 cells): 27.5 nM; IC50 (human GIP receptor [1]; cAMP antagonism nM (IC50, antagonistic potency), transiently transfected COS-7 cells, Table 1 and text): 28 nM
